Measurements published in ChEMBL document CHEMBL1149414, “Vitamin D receptor: ligand recognition and allosteric network” (J Med Chem, 2006).

Legend:
Vitamin D3 receptor [1] = molecular target: T1, Vitamin D3 receptor (Homo sapiens, UniProt P11473); assay: Antagonistic activity against human VDR in presence of 1,25(OH)2D3; format: functional
T1 sequence (P11473 whole entry): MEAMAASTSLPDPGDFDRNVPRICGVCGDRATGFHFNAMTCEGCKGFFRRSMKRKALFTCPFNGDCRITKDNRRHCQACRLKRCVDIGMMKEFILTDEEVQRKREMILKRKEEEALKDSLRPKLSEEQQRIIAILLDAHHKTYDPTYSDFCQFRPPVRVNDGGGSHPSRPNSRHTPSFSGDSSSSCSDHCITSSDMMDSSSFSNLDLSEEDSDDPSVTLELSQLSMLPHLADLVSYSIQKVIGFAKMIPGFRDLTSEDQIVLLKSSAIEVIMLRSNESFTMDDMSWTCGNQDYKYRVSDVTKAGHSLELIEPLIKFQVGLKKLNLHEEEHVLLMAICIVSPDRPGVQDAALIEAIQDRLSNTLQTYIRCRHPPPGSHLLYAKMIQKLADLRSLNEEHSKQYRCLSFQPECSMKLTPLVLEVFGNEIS

Vitamin D3 receptor [2] = molecular target: T1, Vitamin D3 receptor; assay: Inhibition of transactivation of human VDR in COS7 cells; format: functional, cell-based, COS-7

C[C@H](/C=C/C[C@H](O)C12CC3CC(CC(C3)C1)C2)[C@H]1CC[C@H]2/C(=C/C=C3C[C@@H](O)C[C@H](O)C3)CCC[C@]12C
IC50 (Vitamin D3 receptor [1]): 0.05 µM | IC50 (Vitamin D3 receptor [2]): 0.4 µM

C=C1C[C@H](C[C@@H](C)[C@H]2CC[C@H]3/C(=C/C=C4C[C@@H](O)C(=C)[C@H](O)C4)CCC[C@]23C)OC1=O
IC50 (Vitamin D3 receptor [2]): 0.3 µM
